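The compound was tested at five concentrations on cells cultured in 96-well plates, with a 48-hour exposure period. GI50: concentration for 50% inhibition of growth. At the TGI there is no net growth.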
Assays:
Experiment in all cases: DTP human tumour cell line panel, 48 h
[1] = tested on: U251 CNS
[2] = tested on: SNB-75 CNS
[3] = tested on: SK-MEL-2 melanoma
[4] = tested on: T-47D breast
[5] = tested on: SK-MEL-28 melanoma
[6] = tested on: HL-60(TB) leukemia
[7] = tested on: OVCAR-3 ovarian
[8] = tested on: SNB-19 CNS
[9] = tested on: NCI-H23 lung
[10] = tested on: SR leukemia

O=C1NC(=O)C(c2ccccc2)=C1Nc1ccccc1
GI50 [1]: > 25 µM | TGI [1]: > 25 µM | GI50 [2]: > 25 µM | TGI [2]: > 25 µM | GI50 [3]: > 25 µM | TGI [3]: > 25 µM | GI50 [4]: > 25 µM | TGI [4]: > 25 µM | GI50 [5]: > 25 µM | TGI [5]: > 25 µM | GI50 [6]: > 25 µM | TGI [6]: > 25 µM | GI50 [7]: > 25 µM | TGI [7]: > 25 µM | GI50 [8]: > 25 µM | TGI [8]: > 25 µM

Cn1c2cc([N+](=O)[O-])ccc2c(=O)c2c(O)cc3c(c21)C=CC(C)(C)O3
TGI [1]: > 100 µM | TGI [2]: 25.7 µM | TGI [3]: > 100 µM | TGI [5]: > 100 µM | TGI [6]: > 100 µM | TGI [8]: 73 µM | TGI [9]: > 100 µM

O=C([O-])CCc1ccccc1.O=C([O-])CCc1ccccc1.O=C([O-])CCc1ccccc1.O=C([O-])CCc1ccccc1.[Mo+2].[Mo+2]
GI50 [1]: > 100 µM | TGI [1]: > 100 µM | GI50 [3]: > 100 µM | TGI [3]: > 100 µM | GI50 [5]: > 100 µM | TGI [5]: > 100 µM | GI50 [6]: > 100 µM | TGI [6]: > 100 µM | GI50 [10]: > 100 µM | TGI [10]: > 100 µM | GI50 [7]: > 100 µM | TGI [7]: > 100 µM | GI50 [8]: > 100 µM | TGI [8]: > 100 µM | GI50 [9]: > 100 µM | TGI [9]: > 100 µM

CCC1c2cc3n(c(=O)c2COC1O)Cc1c-3nc2ccccc2c1Cl (stereo unspecified)
TGI [1]: > 100 µM | TGI [2]: > 100 µM | TGI [3]: > 100 µM | TGI [5]: > 100 µM | TGI [6]: > 100 µM | TGI [7]: > 100 µM | TGI [8]: > 100 µM | TGI [9]: > 100 µM

C=C(COC(C)=O)CC(/C=C(\C)CC/C=C(\C)CO)OC(C)=O (stereo unspecified)
TGI [1]: > 100 µM | TGI [2]: > 100 µM | TGI [3]: > 100 µM | TGI [5]: > 100 µM | TGI [6]: > 100 µM | TGI [7]: > 100 µM | TGI [8]: > 100 µM | TGI [9]: > 100 µM

N#Cc1c(-c2ccccc2)cc(-c2cccs2)c(C#N)c1N
TGI [1]: > 100 µM | TGI [2]: 55.2 µM | TGI [6]: > 100 µM | TGI [7]: > 100 µM | TGI [8]: > 100 µM

NC(CO)c1ccc(OCc2ccccc2)cc1 (stereo unspecified)
TGI [1]: > 100 µM | TGI [2]: 98.9 µM | TGI [3]: > 100 µM | TGI [5]: > 100 µM | TGI [6]: > 100 µM | TGI [10]: 81.5 µM | TGI [7]: > 100 µM | TGI [8]: > 100 µM | TGI [9]: > 100 µM

COC(=O)c1nc(C(=O)OC)c2c([nH]c3ccccc32)c1C(=O)OC
TGI [1]: > 100 µM | TGI [2]: > 100 µM | TGI [3]: > 100 µM | TGI [5]: > 100 µM | TGI [10]: > 100 µM | TGI [7]: > 100 µM | TGI [9]: > 100 µM

CC(=O)OCC1OC([Se-])C(OC(C)=O)C(OC(C)=O)C1OC(C)=O.N#CCC[PH+](CCC#N)CCC#N.[Au+] (stereo unspecified)
GI50 [1]: 10.9 µM | TGI [1]: > 48.8 µM | GI50 [2]: 21.3 µM | TGI [2]: > 100 µM | GI50 [3]: 11.8 µM | TGI [3]: 48.4 µM | GI50 [5]: 9.01 µM | TGI [5]: 60.5 µM | GI50 [6]: 1.87 µM | TGI [6]: 4.31 µM | GI50 [10]: 3.06 µM | TGI [10]: 13.7 µM | GI50 [7]: 7.3 µM | TGI [7]: 49.7 µM | GI50 [8]: 10.9 µM | TGI [8]: > 77.9 µM | GI50 [9]: 4.55 µM | TGI [9]: 23.1 µM

CCc1cccc(CC)c1NC(=O)CC1SC(N)=NC1=O (stereo unspecified)
TGI [1]: > 100 µM | TGI [2]: > 100 µM | TGI [3]: > 100 µM | TGI [5]: > 100 µM | TGI [6]: > 100 µM | TGI [10]: > 100 µM | TGI [7]: > 100 µM | TGI [8]: > 100 µM | TGI [9]: > 100 µM

C=CCC12CCC(=O)[C@@]1(C)CC=C(O)C2=O (stereo partly specified)
TGI [1]: > 100 µM | TGI [2]: > 100 µM | TGI [5]: > 100 µM | TGI [6]: > 100 µM | TGI [10]: > 100 µM | TGI [7]: > 100 µM | TGI [8]: > 100 µM

O=c1c(O)cc2c(O)oc3c(=O)c(O)c(O)c4c(O)oc1c2c43
TGI [1]: 34.3 µM | TGI [2]: > 100 µM | TGI [3]: > 100 µM | TGI [5]: > 100 µM | TGI [6]: > 100 µM | TGI [10]: > 100 µM | TGI [7]: > 100 µM | TGI [8]: > 100 µM | TGI [9]: > 100 µM

O=C(c1cccs1)c1nc2cc(Cl)ccc2[n+]([O-])c1C(F)(F)F
GI50 [1]: > 100 µM | TGI [1]: > 100 µM | GI50 [2]: 57.3 µM | TGI [2]: > 100 µM | GI50 [3]: 51.2 µM | TGI [3]: > 100 µM | GI50 [5]: > 100 µM | TGI [5]: > 100 µM | GI50 [6]: > 100 µM | TGI [6]: > 100 µM | GI50 [10]: 35.4 µM | TGI [10]: > 100 µM | GI50 [7]: > 100 µM | TGI [7]: > 100 µM | GI50 [8]: > 100 µM | TGI [8]: > 100 µM | GI50 [9]: > 100 µM | TGI [9]: > 100 µM

Cc1ccc(NC(=O)c2nc(S(C)(=O)=O)oc2-c2ccc(F)cc2)cc1Nc1ccc2ncn(C)c(=O)c2c1
GI50 [1]: 2.01 µM | TGI [1]: 3.84 µM | GI50 [2]: 2.13 µM | TGI [2]: 5.65 µM | GI50 [3]: 1.59 µM | TGI [3]: 3.29 µM | GI50 [5]: 1.74 µM | TGI [5]: 3.4 µM | GI50 [6]: 2.11 µM | TGI [6]: 5.2 µM | GI50 [8]: 3.46 µM | TGI [8]: 9.86 µM | GI50 [9]: 2.79 µM | TGI [9]: 9.19 µM

COc1cc(C2C(C(=O)O)=C(COC(C)=O)Oc3cc4c(cc32)OCO4)cc(OC)c1OC(C)=O (stereo unspecified)
TGI [1]: > 100 µM | TGI [2]: > 100 µM | TGI [3]: > 100 µM | TGI [5]: > 100 µM | TGI [6]: > 100 µM | TGI [7]: > 100 µM | TGI [8]: > 100 µM | TGI [9]: > 100 µM

Cc1cc2c(cc1C)[n+](=O)c(C(=O)CC(=O)C(=O)Nc1ccccc1C(C)C)c(C)n2[O-]
TGI [1]: > 100 µM | TGI [2]: > 100 µM | TGI [3]: > 100 µM | TGI [5]: > 100 µM | TGI [6]: > 100 µM | TGI [10]: > 100 µM | TGI [7]: > 100 µM | TGI [8]: > 100 µM | TGI [9]: > 100 µM

C#CCn1c(=O)c2cccnc2n(CC#C)c1=O
TGI [1]: > 100 µM | TGI [2]: > 100 µM | TGI [3]: > 100 µM | TGI [5]: > 100 µM | TGI [6]: > 100 µM | TGI [10]: > 100 µM | TGI [8]: > 100 µM | TGI [9]: > 100 µM

CCC(C)(C)[C@H](NC(=O)[C@H]1CCCCN1C)C(=O)N(C)[C@H](C[C@@H](OC(C)=O)c1nc(C(=O)N[C@@H](Cc2ccccc2)C[C@H](C)C(=O)O)cs1)C(C)C
GI50 [1]: < 0.00167 µM | TGI [1]: > 16.7 µM | GI50 [2]: < 0.00167 µM | TGI [2]: > 16.7 µM | GI50 [3]: < 0.00167 µM | TGI [3]: > 16.7 µM | GI50 [6]: < 0.00167 µM | TGI [6]: < 0.00167 µM | GI50 [10]: < 0.00167 µM | TGI [10]: > 16.7 µM | GI50 [7]: < 0.00167 µM | TGI [7]: 0.00472 µM | GI50 [8]: < 0.00167 µM | TGI [8]: > 16.7 µM | GI50 [9]: < 0.00167 µM | TGI [9]: > 16.7 µM

C=C1C(=O)c2cc3c(cc2C(c2cc(OC)c(OC)c(OC)c2)[C@@H]1C(=O)O)OCO3 (stereo partly specified)
TGI [1]: > 100 µM | TGI [2]: 61.1 µM | TGI [5]: > 100 µM | TGI [7]: 72.8 µM | TGI [9]: > 100 µM

N#CC(/C(=N/NC(N)=S)C(=O)Nc1cccc(Cl)c1)c1ccccc1 (stereo unspecified)
TGI [1]: > 100 µM | TGI [2]: > 100 µM | TGI [3]: > 100 µM | TGI [5]: > 100 µM | TGI [6]: > 100 µM | TGI [10]: > 100 µM | TGI [7]: > 100 µM | TGI [8]: > 100 µM | TGI [9]: > 100 µM
